According to US4031235A, “Insecticidal substituted acetate compounds” (Sumitomo Chemical Company, Limited, priority 1972, dated 1977):
≈ marks a conversion by molar mass, not a printed value.

What was measured:
[1] = test system: small brown planthoppers (Delphacodes striatella Fallen); experiment: Killing effect on small brown planthoppers on sprayed rice plants (Experimental Example 1); format: in vivo; settings: 300-fold dilute solution, 10 ml/pot; one day after treatment; 1440 min
Description: (§1) An emulsifiable concentrate was prepared by blending each of the compounds (1) to (300) of the present invention, xylol and Sorpol SM-200 (trade name; manufactured by Toho Chemical Co., Ltd.) in a proportion of 25%, 50% and 25% (by weight), respectively. 20 to 25 day-old rice plants after seeding were grown in pots and sprayed with each 300-fold dilute solution of the emulsifiable concentrates thus prepared and a 300-fold dilute solution of carbaryl 30% wettable powder diluted with water as a control commercial agent in an amount of 10 ml/pot in each case and then the pots were covered by a cylindrical metal net. 15 small brown planthoppers (Delphacodes striatella Fallen) per group were released in each of the pots treated with carbaryl wettable powder, and compound (1) to (21) and (102) to (110), while 15 green rice leafhopper (Nephotettix bipuntatus cincticeps Uhler) per group were released in each of the pots treated with the carbaryl wettable powder and compounds (22) to (101) and (111) to (300).

[2] = test system: green rice leafhopper (Nephotettix bipuntatus cincticeps Uhler); experiment: Killing effect on green rice leafhopper on sprayed rice plants (Experimental Example 1); format: in vivo; settings: 300-fold dilute solution, 10 ml/pot; one day after treatment; 1440 min
Description: as §1

[3] = test system: Larvae of Mosquito (Culex pipiens); experiment: Insecticidal activity on larvae of mosquito (Experimental Example 2); format: in vivo; settings: 24 h, read-out: LC50 (50% lethal concentration)
Description: as §1
Of the emulsifiable concentrates prepared in Experimental Example 1, each of those prepared from the compounds of Table 1 below was diluted with water to each of test concentrations and a 200 ml portion thereof was added to a 300 ml volume beaker. 30 larvae of mosquito per group were released in each of the beaker and allowed to stand for 1 day. Survival was observed and a LC50 (50% lethal concentration) was determined by calculating a percent killing in each case. As a control, lindane emulsifiable concentrate was used.

[4] = test system: adult mosquitoes (Culex pipiens); experiment: Knock-down of adult mosquitoes by 0.2% oil preparation (Experimental Example 4); format: in vivo; settings: 0.2% oil preparation, 0.7 ml, 1.5 Kg/cm^2, (70 Cm)^3 glass box, read-out: mosquitoes knocked down
Description: (§2) 0.2% oil preparation was prepared from each of the compounds (1), (2), (8), (14), (22), (25), (26), (27), (51), (62), (73), (82), (86), (88), to (90), (92), (94), (96), (111), (119), (121), (165), (175), (180), (184), (185), (195), (200), (201), and (208) and allethrin as a control using deodorized kerosene.

[5] = test system: oriental house flies; experiment: Activity on knock-down against oriental house flies (Experimental Example 5); format: in vivo; settings: 0.2% oil preparation, 0.7 ml, 1.5 Kg/cm^2, (70 cm)^3 glass box
Description: as §2
20 oriental house flies per group were released in a (70 cm)^3 volume glass box and sprayed with each of the oil preparations prepared in Experimental Example 4 from the compounds of Table 3 below and allethrin in an amount of 0.7 ml under a pressure of 1.5 Kg/cm^2.

[6] = Oral toxicity to mice; settings: mouse, in vivo
[7] = test system: oriental house flies; experiment: Potentiation of insecticidal activity by addition of piperonyl butoxide, topical application (Experimental Example 6); format: in vivo; settings: piperonyl butoxide 5 times active ingredient; acetone solution on thoracic dorsal plate
Description: To each of the compounds (22), (51), (62), (63), (82), (86), (125), (150), (160), (176), (177), (178), (184), (185), (191), (195), (200), (201), (204), (208), (210), (212) and (226) was added piperonyl butoxide in an amount of 5 times that of the active ingredient, respectively to prepare an acetone solution having a given concentration. Each of the thus prepared acetone solutions was applied onto a thoracic dosal plate of oriental house flies using a microshringe to observe a synergestic effect on insecticidal activity by piperonyl butoxide.

| Structure (SMILES) | killing effect [1] | killing effect [2] | LC50 [3] | pest or weed control at 0.2 % [4] | KT50 (50% knock-down time) [5] | LD50 [6] | Potentiation magnification of insecticidal activity by the addition of piperonyl butoxide [7] |
| --- | --- | --- | --- | --- | --- | --- | --- |
| CNC(=O)Oc1cccc2ccccc12 [carbaryl] | more than 90% | more than 90% |  |  |  |  |  |
| CCC(C(=O)OCc1coc(Cc2ccccc2)c1)c1ccccc1 (stereo not drawn) [compound 1, 5'-Benzyl-3'-furylmethyl-α-ethyl-phenylacetate] |  |  | 1.5 ng/mL (≈ 4.49 nM) | > 80% | 167 s | > 1000 mg/kg |  |
| CCC(C(=O)OCc1cccc(Oc2ccccc2)c1)c1ccccc1 (stereo not drawn) [compound 2, 3'-Phenoxybenzyl-α-ethylphenylacetate] |  |  | 3.4 ng/mL (≈ 9.81 nM) | > 80% |  | > 1000 mg/kg |  |
| C#CCc1cc(C(C#C)OC(=O)C(CC)c2ccccc2)co1 (stereo not drawn) [compound 8, 5'-Propargyl-α '-ethynyl-3'-furylmethyl-α-ethyl-phenylacetate] |  |  |  | > 80% | 128 s | 750 mg/kg |  |
| COc1ccc(C(C(=O)OCc2coc(Cc3ccccc3)c2)C(C)C)cc1 (stereo not drawn) [compound 22, 5'-Benzyl-3'-furylmethyl-α-isopropyl-4-methoxyphenylacetate] |  |  |  | > 80% | 136 s | 900 mg/kg | 5.0 |
| C#CCc1ccc(C(C#C)OC(=O)C(c2ccc(OC)cc2)C(C)C)o1 (stereo not drawn) [compound 51, 5'-Propargyl-2'-(α'-ethynyl)-furfuryl-α-isopropyl-4-methoxyphenylacetate] |  |  |  | > 80% | 104 s |  | 7.2 |
| COc1ccc(C(C(=O)OCc2cccc(Oc3ccccc3)c2)C(C)C)cc1 (stereo not drawn) [compound 62, 3'-Phenoxybenzyl-α-isopropyl-4-methoxyphenylacetate] |  |  |  | > 80% | 154 s | > 1000 mg/kg | 5.3 |
| COc1ccc(C(C(=O)OCc2ccc(Oc3ccccc3)o2)C(C)C)cc1 (stereo not drawn) [compound 63, 5'-Phenoxyfurfuryl-α-isopropyl-4-methoxyphenylacetate] |  |  |  |  | 140 s | > 1000 mg/kg | 4.8 |
| CCC(C(=O)OCc1cccc(Oc2ccccc2)c1)c1ccc(OC)cc1 (stereo not drawn) [compound 80, 3'-Phenoxybenzyl-α-ethyl-4-methoxyphenylacetate] |  |  |  |  |  | > 2000 mg/kg |  |
| C=C(C)C(C(=O)OCc1cccc(Oc2ccccc2)c1)c1ccc(OC)cc1 (stereo not drawn) [compound 82, 3'-Phenoxybenzyl-α-isopropenyl-4-methoxyphenylacetate] |  |  |  | > 80% | 132 s | > 1000 mg/kg | 6.7 |
| Cc1ccc(C(C(=O)OCc2cccc(Oc3ccccc3)c2)C(C)C)cc1 (stereo not drawn) [compound 108, 3'-Phenoxybenzyl-α-isopropyl-4-methylphenylacetate] |  |  |  |  |  | > 1000 mg/kg |  |
| C=C(C)C(C(=O)OCc1cccc(Oc2ccccc2)c1)c1ccc(Br)cc1 (stereo not drawn) [compound 111, 3'-Phenoxybenzyl-α-isopropenyl-4-bromophenylacetate] |  |  | 2.5 ng/mL (≈ 5.72 nM) | > 80% | 138 s |  |  |
| C=C(C)C(C(=O)OCc1cccc(Oc2ccccc2)c1)c1ccc(Cl)cc1 (stereo not drawn) [compound 119, 3'-Phenoxybenzyl-α-isopropenyl-4-chlorophenylacetate] |  |  | 4.4 ng/mL (≈ 11.2 nM) | > 80% | 132 s | > 1000 mg/kg | 5.5 |
| C=C(C)C(C(=O)OCc1cccc(Oc2ccccc2)c1)c1ccc(F)cc1 (stereo not drawn) [compound 121, 3'-Phenoxybenzyl-α-isopropenyl-4-fluorophenylacetate] |  |  | 3.7 ng/mL (≈ 9.83 nM) | > 80% | 130 s |  |  |
| C=C(C)C(C(=O)OCc1cccc(Oc2ccccc2)c1)c1ccc(C)cc1 (stereo not drawn) [compound 125, 3'-Phenoxybenzyl-α -isopropenyl-4-methylphenylacetate] |  |  | 3.2 ng/mL (≈ 8.59 nM) |  |  | 1000 mg/kg | 6.0 |
| C#CCc1cc(C)c(COC(=O)C(c2ccc(Cl)cc2)C(C)C)c(C)c1 (centres unmarked) [compound 129] |  |  |  |  |  | > 1000 mg/kg |  |
| CC(C)C(C(=O)OCN1C(=O)c2ccccc2C1=O)c1ccc(Cl)cc1 (centres unmarked) [compound 130] |  |  |  |  |  | > 1000 mg/kg |  |
| Cc1ccc(C(C(=O)OCc2ccc(Cc3ccco3)s2)C(C)C)cc1 (centres unmarked) [compound 145] |  |  | 3.9 ng/mL (≈ 10.6 nM) |  |  | > 1000 mg/kg |  |
| Cc1ccc(C(C(=O)OCc2cc3c(s2)CCCC3)C(C)C)cc1 (centres unmarked) [compound 150] |  |  |  |  |  | > 1000 mg/kg | 4.2 |
| CC(C)C(C(=O)OC(C#N)c1cccc(Oc2ccccc2)c1)c1ccc(F)cc1 (centres unmarked) [compound 165] |  |  | 1.2 ng/mL (≈ 2.97 nM) | > 80% | 145 s |  |  |
| CCC(C(=O)OCc1cccc(Oc2ccccc2)c1)c1ccc(C)cc1 (centres unmarked) [compound 176] |  |  |  |  |  | > 1000 mg/kg | 5.2 |
| CCC(C(=O)OCc1coc(Oc2ccccc2)c1)c1ccc(Cl)cc1 (centres unmarked) [compound 180] |  |  | 7.2 ng/mL (≈ 19.4 nM) | > 80% | 157 s |  |  |
| CCC(C(=O)OCc1coc(Cc2ccccc2)c1)c1ccc(Cl)cc1 (centres unmarked) [compound 184] |  |  | 7.8 ng/mL (≈ 21.1 nM) | > 80% | 142 s | 940 mg/kg | 5.6 |
| CCC(C(=O)OCc1coc(Cc2ccccc2)c1)c1ccc(F)cc1 (centres unmarked) [compound 185] |  |  |  | > 80% | 137 s |  | 5.0 |
| Cc1ccc(C(C(=O)OCc2coc(Oc3ccccc3)c2)C(C)C)cc1 (centres unmarked) [compound 195] |  |  |  | > 80% | 140 s |  | 5.7 |
| C#CCc1ccc(C(C#C)OC(=O)C(c2ccc(C)cc2)C(C)C)o1 (centres unmarked) [compound 200] |  |  |  | > 80% | 114 s |  | 7.5 |
| C#CCc1ccc(C(C#C)OC(=O)C(c2ccc(Cl)cc2)C(C)C)o1 (centres unmarked) [compound 201] |  |  |  | > 80% | 105 s |  | 7.0 |
| CC(C)C(C(=O)OCc1cccc(Oc2ccccc2)c1)c1ccc(Cl)cc1 (centres unmarked) [compound 206] |  |  | 3.2 ng/mL (≈ 8.1 nM) |  |  | > 1000 mg/kg | 5.1 |
| CC(C)C(C(=O)OCc1coc(Cc2ccccc2)c1)c1ccc(F)cc1 (centres unmarked) [compound 208] |  |  |  | > 80% | 150 s |  | 5.2 |
